Residue numbers refer to the chain shown, from its start.
Key:
Format in all cases: biochemical
[1] = molecular target: T1, AKR1C2 (Homo sapiens, UniProt P52895); assay: oxidation by purified enzyme, absorbance at […] nm; Km; details: cited from earlier work
T1 construct: homogeneous recombinant enzyme
T1 sequence (P52895 1-323): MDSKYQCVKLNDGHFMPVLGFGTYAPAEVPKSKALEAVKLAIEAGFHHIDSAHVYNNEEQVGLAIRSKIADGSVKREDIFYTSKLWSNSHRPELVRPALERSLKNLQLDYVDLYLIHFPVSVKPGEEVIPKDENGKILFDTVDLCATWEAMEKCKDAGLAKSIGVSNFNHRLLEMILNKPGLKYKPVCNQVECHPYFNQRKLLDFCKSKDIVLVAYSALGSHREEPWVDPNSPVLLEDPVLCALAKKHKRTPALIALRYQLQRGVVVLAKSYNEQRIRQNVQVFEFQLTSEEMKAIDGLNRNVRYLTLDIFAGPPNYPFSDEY

[2] = molecular target: T2, AKR1C1 (Homo sapiens, UniProt Q04828); assay: specific activity of purified enzyme, absorbance at […] nm
T2 construct: homogeneous recombinant enzyme
T2 sequence (Q04828 1-323): T1 sequence (P52895 1-323) with V38T, H47R, V54L, S87C, M151V, H170R, L172Q

[3] = molecular target: T3, AKR1C3 (Homo sapiens, UniProt P42330); assay: inhibition of NADP+-dependent S-tetralol oxidation by recombinant enzyme
T3 construct: homogeneous recombinant enzyme
T3 sequence (P42330 1-323): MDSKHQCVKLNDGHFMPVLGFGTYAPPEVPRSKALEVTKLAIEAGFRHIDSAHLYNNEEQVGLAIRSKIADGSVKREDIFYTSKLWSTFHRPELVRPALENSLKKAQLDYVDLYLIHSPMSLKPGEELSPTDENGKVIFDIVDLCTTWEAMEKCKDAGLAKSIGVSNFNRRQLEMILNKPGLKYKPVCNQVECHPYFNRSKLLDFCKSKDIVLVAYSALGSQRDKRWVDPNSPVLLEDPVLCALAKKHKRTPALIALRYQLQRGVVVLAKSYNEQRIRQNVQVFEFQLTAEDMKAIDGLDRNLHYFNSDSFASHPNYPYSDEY

specific activity of purified enzyme, absorbance at 340 nm [2] [µmol/min/mg] | IC50 [3] [µM] | SMILES | Km [1] [µM]
1.4 | – | O[C@H]1CCCc2ccccc21 [S-tetralol, (S)-(+)-1,2,3,4-tetrahydro-1-naphthol] | 15
– | 0.077 ± 0.002 | O=C(O)/C=C/c1cc(C(=O)NCc2ccc(OCc3cn(CCOCCOCC(=O)Nc4cccc5c4CN(C4CCC(=O)NC4=O)C5=O)nn3)cc2)cc(-c2ccccc2)c1 (stereo not shown) [compound 5, (E)-3-(5-((4-((1-(2-(2-(2-((2-(2,6-dioxopiperidin-3-yl)-1-oxoisoindolin-4-yl)amino)-2-oxoethoxy)ethoxy)ethyl)-1H-1,2,3-triazol-4-yl)methoxy)benzyl)carbamoyl)-[1,1’-biphenyl]-3-yl)acrylic acid] | –
– | 0.062 ± 0.001 | C#CCOc1ccc(CNC(=O)c2cc(/C=C/C(=O)O)cc(-c3ccccc3)c2)cc1 [compound 4, warhead 4] | –
